Measured values reported in patent US7968551B2, “Chromenoneindoles” (Merck Patent GmbH, priority 2003, dated 2011).

Tests used:
cortical serotonin level = experiment: Microdialysis: effect on the cortical serotonin level in vivo; conditions: rats
Excerpt: In order to determine the effect of the substances on the cortical serotonin level in rats in vivo, a microdialysis probe with a semipermeable membrane was implanted into the brain tissue and perfused with a solution matched to the composition of cerebrospinal fluid (see in this respect, for example, Di Chiara, Trends Pharmacol. Sci. 11, 117-121, 1990). The molecules of the extracellular space, such as, for example, also of the neurotransmitter serotonin, diffuse via this membrane into the interior of the probe in accordance with their concentration gradient. From there, they are transported with the perfusion stream to a collecting vessel. The serotonin concentration in the dialysate obtained in this way is subsequently determined by means of high-sensitivity analytical methods. The fractions obtained at regular intervals (of, for example, 15-20 minutes) thus reflect the concentration changes of the transmitter in question in the brain tissue over a period of several hours. The concentration of the serotonin in the dialysate is firstly measured without any influence. The substance to be tested is then applied, and the serotonin concentrations before and after administration of the substances are compared.

[1] = Absolute bioavailability from AUC after po and iv administration; type: in vivo; conditions: rat; Wistar rats, male; iv 0.2 mg/kg, po 0.5 mg/kg; plasma by LC/MS/MS
Method: The bioavailability was determined by a standard method described in many textbooks of pharmacokinetics with the aid of the AUC (area under the concentration/time curves) measured after po and iv administration. For the determination of the absolute bioavailability, the plasma concentration curve of the said substances was determined after intravenous (iv) and oral (po) administration to Wistar rats (male; N=3 animals/administration). The following experiment design was selected: • Administration method: iv and po • Dose: iv−0.2 mg/kg; po−0.5 mg/kg • Time of blood sampling for the determination of the plasma concentrations: • iv: 0.1, 0.5, 1, 2, 4, 6 and 24 h • po: 0.25, 0.5, 1, 2, 4, 6 and 24 h
The plasma concentrations were determined with the aid of LC/MS/MS.
The plasma concentrations were used to calculate the AUC (area under the concentration/time curve) in accordance with the so-called trapezium formula.
The bioavailability is obtained from the AUC in accordance with the following formula: Bioavailability [%]=100×(AUC po)/AUC iv)[…]

## N#Cc1ccc2[nH]cc(CCCCN3CCN(c4ccc5oc(C(N)=O)cc5c4)CC3)c2c1 [EMD 68843, 5-{4-[4-(5-cyano-3-inolyl)butyl]-1-piperanzinyl}benzofuran-2-carboxamide, reference compound]
Cortical serotonin level; 1 mg/kg i.p.
  serotonin level in the brain (5-HT concentration in the dialysate), FIG. 1: comparable increase in the concentration of serotonin in the brain to EMD 135894

## N#Cc1ccc2[nH]cc(CCCCN3CCN(c4ccc5oc(=O)ccc5c4)CC3)c2c1 [EMD 135894, 3-(4-(4-(2-oxo-2H-1-benzopyran-6-yl)-1-piperazinyl)butyl)indole-5-carbonitrile, reference compound]
[1]
  bioavailability: 10%

## N#Cc1ccc2[nH]cc(CCCCN3CCN(c4ccc5oc(=O)c(N)cc5c4)CC3)c2c1 [EMD 480246, 3-{4-[4-(3-Amino-2-oxo-2H-chromen-6-yl)piperazin-1-yl]butyl}-1H-indole-5-carbonitrile]
Cortical serotonin level; 0.3 mg/kg i.p.
  serotonin level in the brain (5-HT concentration in the dialysate), FIG. 2: even higher serotonin level than EMD 391987

## CCOC(=O)Nc1cc2cc(N3CCN(CCCCc4c[nH]c5ccc(C#N)cc45)CC3)ccc2oc1=O [EMD 480247, Ethyl(6-{4-[4-(5-cyano-1H-indol-3-yl)butyl]piperazin-1-yl}-2-oxo-2H-chromen-3-yl)carbamate]
[1]
  bioavailability: ~20%
Cortical serotonin level; 0.3 or 1.0 mg/kg i.p. compared with vilazodone 1 mg/kg
  serotonin level in the brain (5-HT concentration in the dialysate), FIG. 3: clearly superior action to vilazodone
